{"source": "patent US20070196421A1", "about": "“Soft tissue implants and drug combination compositions, and use thereof” (priority 2005, published 2007)", "key": {"stromelysin": {"test_system": "stromelysin", "assay": "IL-1 induced stromelysin RNA levels in chondrocytes (FIG. 1D)", "assay_type": "cell-based", "details": "pretreatment"}, "collagenase (MMP-1) mRNA": {"test_system": "collagenase (MMP-1) mRNA", "assay": "IL-1 induced collagenase (MMP-1) mRNA expression in chondrocytes, Northern blot", "details": "10^−5 M, 24 hours pretreatment, IL-1β 20 ng/ml"}, "collagenase": {"test_system": "collagenase", "assay": "IL-1 induced collagenase RNA levels in chondrocytes (FIG. 1D)", "assay_type": "cell-based", "details": "pretreatment"}, "AP-1": {"test_system": "AP-1", "assay": "IL-1 induced AP-1 binding activity in chondrocyte lysates (FIG. 1C)", "assay_type": "cell-based", "details": "lysates from chondrocytes pretreated with paclitaxel"}, "[1]": {"test_system": "AP-1 transcriptional activity", "assay": "IL-1 stimulated AP-1 transcriptional activity (AP-1 driven CAT reporter gene) in chondrocytes", "assay_type": "cell-based", "details": "transfected chondrocytes, IL-1 50 ng/ml, 24 hours, paclitaxel 10^−7 to 10^−5 M", "experimental": "Chondrocytes were transfected with constructs containing an AP-1 driven CAT reporter gene, and stimulated with IL-1, IL-1 (50 ng/ml) was added and incubated for 24 hours in the absence and presence of paclitaxel at various concentrations. […] The data noted with an asterisk (*) have significance compared with IL-1-induced CAT activity according to a t-test, P<0.05. The results shown are representative of three independent experiments."}, "stromelysin (MMP-3) mRNA": {"test_system": "stromelysin (MMP-3) mRNA", "assay": "IL-1 induced stromelysin (MMP-3) mRNA expression in chondrocytes, Northern blot", "details": "10^−5 M, 24 hours pretreatment, IL-1β 20 ng/ml"}, "[2]": {"test_system": "AP-1 DNA binding activity", "assay": "IL-1 induced AP-1 DNA binding activity, gel mobility shift assay of chondrocyte extracts", "assay_type": "cell-based", "details": "chondrocyte lysates, pretreated 10^−7 to 10^−5 M for 24 hours, IL-1β 20 ng/ml", "experimental": "Binding activity was assayed with a radiolabeled human AP-1 sequence probe and gel mobility shift assay. Extracts from chondrocytes untreated or treated with various amounts of paclitaxel (10^−7 to 10^−5 M) followed by IL-1β (20 ng/ml) were incubated with excess probe on ice for 30 minutes, followed by non-denaturing gel electrophoresis. The “com” lane contains excess unlabeled AP-1 oligonucleotide. The results shown are representative of three independent experiments."}, "[3]": {"details": "200 mg/day orally; cited from earlier work"}, "[4]": {"details": "water; cited from earlier work"}, "[5]": {"details": "in vivo; cited from earlier work"}, "[6]": {"details": "in vivo; cited from earlier work", "remark": "listed apart in the source"}, "endo-exonuclease": {"test_system": "endo-exonuclease", "details": "cited from earlier work"}, "[7]": {"test_system": "phosphatases of regenerating liver (PRL)", "details": "cited from earlier work"}, "[8]": {"biological_target": "protein tyrosine phosphatase 1B (PTP1B) (Homo sapiens, UniProt P18031)", "sequence (P18031 whole entry)": "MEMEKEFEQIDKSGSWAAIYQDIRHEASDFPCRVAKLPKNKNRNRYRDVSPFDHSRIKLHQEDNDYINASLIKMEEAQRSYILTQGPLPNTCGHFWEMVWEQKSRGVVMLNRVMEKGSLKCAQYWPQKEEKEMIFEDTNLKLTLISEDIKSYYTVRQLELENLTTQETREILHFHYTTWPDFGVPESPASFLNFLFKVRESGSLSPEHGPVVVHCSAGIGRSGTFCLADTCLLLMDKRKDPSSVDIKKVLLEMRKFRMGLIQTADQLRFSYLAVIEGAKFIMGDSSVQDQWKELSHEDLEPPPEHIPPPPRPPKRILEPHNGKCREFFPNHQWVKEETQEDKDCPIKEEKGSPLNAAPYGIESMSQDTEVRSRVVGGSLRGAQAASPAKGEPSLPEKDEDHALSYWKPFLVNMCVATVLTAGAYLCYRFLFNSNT", "details": "cited from earlier work"}, "AP1": {"test_system": "AP1", "assay": "AP1 activation", "assay_type": "cell-based"}, "p38": {"test_system": "p38", "assay": "p38 activation", "assay_type": "cell-based"}, "[9]": {"test_system": "GRE reporter plasmid in T cells", "assay": "transactivation of a transfected GRE reporter plasmid in T cells", "assay_type": "cell-based"}, "glucocorticoid receptor": {"test_system": "glucocorticoid receptor", "assay": "glucocorticoid receptor trafficking (mechanism study)", "assay_type": "cell-based"}, "[10]": {"test_system": "LPS-induced TNF-α production", "assay": "acute in vivo model of inflammation (LPS-induced TNF-α release)", "details": "agent alone (prednisolone at reduced dose)"}, "[11]": {"test_system": "carrageenan-induced paw edema", "assay": "Rat carrageenan-induced paw edema model: paw swelling", "assay_type": "in vivo", "details": "2.26 mg/kg, local injection in paw at T-1 hr, Tmax = 6 hrs", "experimental": "(§1) A dose-range finding study was performed to determine the anti-inflammatory activity of various ratios of methyl prednisolone acetate and amoxapine in a rat carrageenan-induced paw edema model. […] The molar ratio of methyl prednisolone acetate to amoxapine ranged from 1:1 to 1:300, using total doses of methyl prednisolone acetate of 0.01, 0.03 or 0.1 mg/kg.\n(§2) The test agent (a combination of methyl prednisolone acetate and amoxapine), vehicle control, or reference agents (methyl prednisolone acetate, amoxapine, or Depo-Medrol®) were administered in the left hind foot pad of rats. After 60 minutes, paw edema was induced by injection of 100 μl of 1% carrageenan in the same foot pad. The paw volume was measured with a water displacement plethysmometer immediately prior to test agent injection (T−1h), at the time of carrageenan injection (T0h), and at T6h. Animals were euthanized by carbon dioxide inhalation. Paw tissue samples were collected and flash frozen in liquid nitrogen. Samples were assayed for TNF-α by enzyme-linked immunoassay (ELISA)."}, "joint swelling": {"test_system": "joint swelling", "assay": "chronic in vivo model of inflammation / chronic arthritis model", "details": "agent alone (prednisolone at reduced dose)"}, "ERK": {"test_system": "ERK", "assay": "ERK activation", "assay_type": "cell-based"}, "NFAT": {"test_system": "NFAT", "assay": "NFAT activation, translocation and transactivation", "assay_type": "cell-based"}, "JNK": {"test_system": "JNK", "assay": "JNK activation", "assay_type": "cell-based"}, "TNF-α": {"test_system": "TNF-α", "assay": "Rat carrageenan-induced paw edema model: TNF-α in paw tissue by ELISA", "assay_type": "in vivo", "details": "2.26 mg/kg", "experimental": "as §1, §2"}, "NFkB": {"test_system": "NFkB", "assay": "NFkB activation", "assay_type": "cell-based"}, "mast cells": {"test_system": "mast cells", "details": "cited from earlier work"}, "eosinophil activation": {"test_system": "eosinophil activation", "details": "cited from earlier work"}}, "data": [{"molecule": "CC(=O)O[C@H]1C(=O)[C@@]2(C)[C@H]([C@H](OC(=O)c3ccccc3)[C@]3(O)C[C@H](OC(=O)[C@H](O)[C@@H](NC(=O)c4ccccc4)c4ccccc4)C(C)=C1C3(C)C)[C@]1(OC(C)=O)CO[C@@H]1C[C@@H]2O", "note": "[paclitaxel]", "values": [{"measurement": "IL-1 induction of stromelysin RNA levels", "setting": "stromelysin", "result": "can be inhibited"}, {"measurement": "collagenase mRNA level", "setting": "collagenase (MMP-1) mRNA", "result": "complete inhibition"}, {"measurement": "IL-1 induction of collagenase RNA levels", "setting": "collagenase", "result": "can be inhibited"}, {"measurement": "IL-1 induced binding activity", "setting": "AP-1", "result": "decreased"}, {"measurement": "IL-1 induced AP-1 reporter gene CAT activity", "setting": "[1]", "result": "reduced IL-1 induced AP-1 reporter gene CAT activity"}, {"measurement": "stromelysin mRNA level", "setting": "stromelysin (MMP-3) mRNA", "result": "complete inhibition"}, {"measurement": "IL-1 induced AP-1 binding activity", "setting": "[2]", "result": "decreased"}]}, {"molecule": "CC(=O)N1CCN(c2ccc(OCC3COC(Cn4ccnc4)(c4ccc(Cl)cc4Cl)O3)cc2)CC1", "note": "(centres unmarked) [ketoconazole]", "values": [{"measurement": "serum concentration", "setting": "[3]", "result": "about 3.2 micrograms"}, {"measurement": "solubility in water (in words)", "setting": "[4]", "result": "essentially insoluble"}]}, {"molecule": "O=C(Nc1ccc([N+](=O)[O-])cc1Cl)c1cc(Cl)ccc1O", "note": "[Niclosamide, niclosamide]", "values": [{"measurement": "toxicity in mammals", "setting": "[5]", "result": "very low toxicity"}]}, {"molecule": "CN(C)/N=N/c1[nH]cnc1C(N)=O", "note": "[Dacarbazine, dacarbazine]", "values": [{"measurement": "absorption from the GI tract", "setting": "[6]", "result": "poorly absorbed"}]}, {"molecule": "N=C(N)c1ccc(OCCCCCOc2ccc(C(=N)N)cc2)cc1", "note": "[pentamidine]", "values": [{"measurement": "inhibition of the activity of endo-exonuclease", "setting": "endo-exonuclease", "result": "inhibit"}, {"measurement": "inhibition of the oncogenic phosphatases of regenerating liver (PRL)", "setting": "[7]", "result": "potent inhibitor"}, {"measurement": "inhibition of protein tyrosine phosphatase 1B (PTP1B)", "setting": "[8]", "result": "effective inhibitor"}]}, {"molecule": "Clc1ccc2c(c1)C(N1CCNCC1)=Nc1ccccc1O2", "note": "[amoxapine]", "values": [{"measurement": "AP1 activation", "setting": "AP1", "result": "partially inhibits"}, {"measurement": "p38 activation", "setting": "p38", "result": "Inhibition"}, {"measurement": "potentiation of prednisolone's ability to transactivate a GRE reporter plasmid", "setting": "[9]", "result": "does not potentiate"}, {"measurement": "glucocorticoid receptor trafficking", "setting": "glucocorticoid receptor", "result": "does not promote"}, {"measurement": "effect of the single agents in the acute / LPS model", "setting": "[10]", "result": "modest or no benefit"}, {"measurement": "Edema ± SEM", "setting": "[11]", "result": "not significantly different from the vehicle treatment"}, {"measurement": "Edema ± SEM", "setting": "[11]; listed as Amoxapine", "result": "38.1 ± 3.3", "unit": "%"}, {"measurement": "effect of the single agents in the chronic model", "setting": "joint swelling", "result": "modest or no benefit"}, {"measurement": "ERK activation", "setting": "ERK", "result": "unaffected"}, {"measurement": "NFAT activation, translocation and transactivation", "setting": "NFAT", "result": "block"}, {"measurement": "JNK activation", "setting": "JNK", "result": "Inhibition"}, {"measurement": "TNF-α ± SEM", "setting": "TNF-α", "result": "32.6 ± 10.1", "unit": "pg/g"}, {"measurement": "NFkB activation", "setting": "NFkB", "result": "partially inhibits"}]}, {"molecule": "CCOC(=O)N1CCC(=C2c3ccc(Cl)cc3CCc3cccnc32)CC1", "note": "[loratadine, Loratadine]", "values": [{"measurement": "inhibition of mast cells", "setting": "mast cells", "result": "inhibits"}, {"measurement": "inhibition of eosinophil activation", "setting": "eosinophil activation", "result": "inhibits"}]}]}
